From patent publication US11566007B2, “Ras inhibitors” (Revolution Medicines, Inc., priority 2019, dated 2023)
pEC50, pIC50: −log10 of the molar value.

What was measured:
K-Ras G12C = K-Ras G12C (Homo sapiens (Human), UniProt P01116+P62937, G12C); test: Ras-Raf (BRAF RBD) disruption / FRET / MOA assay, KRAS G12C; format: biochemical; details: KRAS G12C; Ras-Raf disruption/FRET/MOA assay; read-out: IC50* KRAS G12C FRET data
Outline: (§1)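 Compound-driven ternary complex of nucleotide-loaded Ras with cyclophilin A, disrupting BRAF RBD binding. 10-point 3-fold dilution from 30 μM final, 3 h at 25° C, then anti-His Eu-W1024 (10 nM) and anti-GST allophycocyanin (50 nM) for 1.5 h. IC50 from TR-FRET ratio decrease versus DMSO.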

KRAS G12S = KRAS G12S (Homo sapiens (Human), UniProt P01116+P62937, G12S); test: Ras-Raf (BRAF RBD) disruption / FRET / MOA assay, KRAS G12S; format: biochemical; details: Ras-Raf disruption/FRET/MOA assay; class symbols; read-out: KRAS G12S FRET data IC50
Outline: as §1

KRAS G12V = KRAS G12V (Homo sapiens (Human), UniProt P01116+P62937, G12V); test: Ras-Raf (BRAF RBD) disruption / FRET / MOA assay, KRAS G12V; format: biochemical; details: read-out: IC50* KRAS G12V FRET data
Outline: as §1

KRAS G13D = KRAS G13D (Homo sapiens (Human), UniProt P01116+P62937, G13D); test: Ras-Raf (BRAF RBD) disruption / FRET / MOA assay, KRAS G13D; format: biochemical; details: read-out: IC50* KRAS G13D FRET data
Outline: as §1

K-Ras G13C = K-Ras G13C (Homo sapiens (Human), UniProt P01116+P62937, G13C); test: Ras-Raf (BRAF RBD) disruption / FRET / MOA assay, KRAS G13C; format: biochemical; details: KRAS G13C; Ras-Raf disruption/FRET/MOA assay; read-out: IC50* KRAS G13C FRET data
Outline: as §1

NCI-H358 (K-Ras G12C) = test: CellTiter-Glo cell viability assay, NCI-H358; format: cell-based, human; details: Homo sapiens, NCI-H358, 120 h, NCI-H358, 5-day treatment; class symbols; read-out: Additional H358 Cell Viability assay data (K-Ras G12C, IC50)
Outline: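 Luminescent viability readout on day 5 after direct compound addition to plated cells; plates sat ~30 min at room temperature before reading. Values expressed as percent of mean DMSO signal, curves fit with a four-parameter logistic model.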

KRAS WT = KRAS WT (Homo sapiens (Human), UniProt P01116+P62937); test: Ras-Raf (BRAF RBD) disruption / FRET / MOA assay, KRAS WT; format: biochemical; details: read-out: IC50* KRAS WT FRET data
Outline: as §1

KRAS G12D = KRAS G12D (Homo sapiens (Human), UniProt P01116+P62937, G12D); test: Ras-Raf (BRAF RBD) disruption / FRET / MOA assay, KRAS G12D; format: biochemical; details: Ras-Raf disruption/FRET/MOA assay; class symbols; read-out: KRAS G12D FRET data IC50
Outline: as §1

NRAS G12C = NRAS G12C (Homo sapiens (Human), UniProt P01111+P62937, G12C); test: Ras-Raf (BRAF RBD) disruption / FRET / MOA assay, NRAS G12C; format: biochemical; details: read-out: IC50* NRAS G12C FRET data
Outline: as §1

[1] = tested on: NCI-H358 cells (K-Ras G12C); test: Potency assay: pERK in NCI-H358 cells; format: cell-based, human; details: Homo sapiens, NCI-H358; H358 KRAS G12C; read-out: pERK EC50
Outline: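 Compounds are dosed as ten 3-fold dilutions from a 10 mM DMSO stock, in duplicate, and left on cells for 4 h at 37 °C, 5% CO2. Phospho-ERK1/2 is then quantified by AlphaLISA SureFire Ultra or In-Cell Western, and IC50 is derived from a 4-parameter sigmoid against log concentration.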

KRAS G13D, sequence (P01116-2 other isoform, or with tags, fused parts or gaps G13D): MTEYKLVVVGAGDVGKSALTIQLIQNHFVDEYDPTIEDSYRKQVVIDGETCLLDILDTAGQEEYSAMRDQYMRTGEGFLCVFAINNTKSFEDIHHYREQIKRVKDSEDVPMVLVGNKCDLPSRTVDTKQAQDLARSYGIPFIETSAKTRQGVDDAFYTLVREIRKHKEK
KRAS G13D, sequence (P62937 whole entry): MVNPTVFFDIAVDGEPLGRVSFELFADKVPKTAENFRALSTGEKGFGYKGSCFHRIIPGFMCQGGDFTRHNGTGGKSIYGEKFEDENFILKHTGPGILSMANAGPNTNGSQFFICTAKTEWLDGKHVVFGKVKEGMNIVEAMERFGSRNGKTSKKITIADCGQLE
NRAS G12C, sequence (P01111 whole entry G12C): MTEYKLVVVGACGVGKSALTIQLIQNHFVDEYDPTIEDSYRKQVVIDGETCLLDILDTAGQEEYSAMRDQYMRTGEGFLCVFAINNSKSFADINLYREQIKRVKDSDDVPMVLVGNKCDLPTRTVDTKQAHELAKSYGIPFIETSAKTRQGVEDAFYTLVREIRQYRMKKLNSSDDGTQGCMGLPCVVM
NRAS G12C, sequence (P62937 whole entry): as the sequence (P62937 whole entry) above
KRAS WT, sequence (P01116-2 other isoform, or with tags, fused parts or gaps): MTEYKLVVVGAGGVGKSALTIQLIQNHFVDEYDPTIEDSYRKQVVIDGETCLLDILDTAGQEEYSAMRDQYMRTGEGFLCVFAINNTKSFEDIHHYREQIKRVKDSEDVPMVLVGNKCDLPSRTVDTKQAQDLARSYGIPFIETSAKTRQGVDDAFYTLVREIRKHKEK
KRAS WT, sequence (P62937 whole entry): as the sequence (P62937 whole entry) above
K-Ras G13C, sequence (P01116-2 other isoform, or with tags, fused parts or gaps G13C): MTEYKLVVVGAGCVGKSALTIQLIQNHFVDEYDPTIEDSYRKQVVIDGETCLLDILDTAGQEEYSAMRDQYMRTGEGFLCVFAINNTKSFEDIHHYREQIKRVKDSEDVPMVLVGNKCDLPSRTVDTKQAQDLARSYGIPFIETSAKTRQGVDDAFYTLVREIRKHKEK
K-Ras G13C, sequence (P62937 whole entry): as the sequence (P62937 whole entry) above
K-Ras G12C, sequence (P01116-2 other isoform, or with tags, fused parts or gaps G12C): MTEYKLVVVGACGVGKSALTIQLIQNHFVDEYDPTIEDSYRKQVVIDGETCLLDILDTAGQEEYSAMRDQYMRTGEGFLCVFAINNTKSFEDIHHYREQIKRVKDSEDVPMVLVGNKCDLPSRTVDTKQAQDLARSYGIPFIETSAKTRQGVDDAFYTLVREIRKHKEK
K-Ras G12C, sequence (P62937 whole entry): as the sequence (P62937 whole entry) above
KRAS G12S, sequence (P01116-2 other isoform, or with tags, fused parts or gaps G12S): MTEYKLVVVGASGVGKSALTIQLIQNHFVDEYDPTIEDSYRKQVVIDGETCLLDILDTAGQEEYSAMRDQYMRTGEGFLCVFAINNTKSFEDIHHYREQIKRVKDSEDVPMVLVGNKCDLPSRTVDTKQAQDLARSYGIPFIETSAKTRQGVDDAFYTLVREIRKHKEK
KRAS G12S, sequence (P62937 whole entry): as the sequence (P62937 whole entry) above
KRAS G12V, sequence (P01116-2 other isoform, or with tags, fused parts or gaps G12V): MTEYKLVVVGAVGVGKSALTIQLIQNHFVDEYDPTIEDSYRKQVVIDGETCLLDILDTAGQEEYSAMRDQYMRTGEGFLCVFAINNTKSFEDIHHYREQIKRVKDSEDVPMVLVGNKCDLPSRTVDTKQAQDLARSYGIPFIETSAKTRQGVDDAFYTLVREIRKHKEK
KRAS G12V, sequence (P62937 whole entry): as the sequence (P62937 whole entry) above
KRAS G12D, sequence (P01116-2 other isoform, or with tags, fused parts or gaps G12D): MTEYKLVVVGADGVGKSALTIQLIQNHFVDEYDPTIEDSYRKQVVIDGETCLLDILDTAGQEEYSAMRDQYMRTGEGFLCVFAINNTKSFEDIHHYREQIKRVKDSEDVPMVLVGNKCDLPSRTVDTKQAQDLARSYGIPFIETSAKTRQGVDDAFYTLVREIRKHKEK
KRAS G12D, sequence (P62937 whole entry): as the sequence (P62937 whole entry) above

Row | Compound | pIC50 (K-Ras G12C) | pIC50 (KRAS G12S) | pIC50 (KRAS G12V) | pIC50 (KRAS G13D) | pIC50 (K-Ras G13C) | pIC50 (NCI-H358 (K-Ras G12C)) | pIC50 (KRAS WT) | pIC50 (KRAS G12D) | pIC50 (NRAS G12C) | pEC50 [1]
1 | CCn1c(-c2cccnc2[C@H](C)OC)c2c3cc(ccc31)-c1nc(cs1)C[C@H](NC(=O)[C@H](C1CCCC1)N(C)C(=O)[C@H]1CCN(C(=O)C#CC(C)(C)N3CCC3)C1)C(=O)N1CCC[C@H](N1)C(=O)OCC(C)(C)C2 (atropisomer, axis not shown) [Example A439] | 7.00 to 8.00 | 5.00 to 6.00 | 5.00 to 6.00 | 5.00 to 6.00 | 6.00 to 7.00 | > 8.00 | 5.00 to 6.00 | < 5.00 | 7.00 to 8.00 | > 5.30
2 | C=CC(=O)N1CC[C@H](C(=O)N(CC)[C@H](C(=O)N[C@H]2Cc3cccc(c3)-c3ccc4c(c3)c(c(-c3cccnc3[C@H](C)OC)n4CC)CC(C)(C)COC(=O)[C@@H]3CCCN(N3)C2=O)C(C)C)C1 (atropisomer, axis not shown) [Example A399] | 6.00 to 7.00 | 5.00 to 6.00 | 5.00 to 6.00 | 5.00 to 6.00 | 5.00 to 6.00 | 7.00 to 8.00 | 5.00 to 6.00 | < 5.00 | 6.00 to 7.00 | > 5.30
3 | CCn1c(-c2cccnc2COC)c2c3cc(ccc31)-c1cc(O)cc(c1)C[C@H](NC(=O)[C@H](C(C)C)N(C)C(=O)[C@H]1CCN(C(=O)/C=C/CN3CCOCC3)C1)C(=O)N1CCC[C@H](N1)C(=O)OCC(C)(C)C2 [Example A134] | 7.00 to 8.00 | 5.00 to 6.00 | 5.00 to 6.00 | 5.00 to 6.00 | 5.00 to 6.00 | 6.00 to 7.00 | 5.00 to 6.00 | 5.00 to 6.00 | 7.00 to 8.00 | > 5.30
4 | C=CC(=O)N1CC[C@H](C(=O)N(C)[C@H](C(=O)N[C@H]2Cc3cc(O)cc(c3)-c3ccc4c(c3)c(c(-c3cc(CN(C)C)cnc3[C@H](C)OC)n4CC)CC(C)(C)COC(=O)[C@@H]3CCCN(N3)C2=O)C(C)C)C1 (atropisomer, axis not shown) [Example A536] | 7.00 to 8.00 | 6.00 to 7.00 | 6.00 to 7.00 | 6.00 to 7.00 | 6.00 to 7.00 | 7.00 to 8.00 | 6.00 to 7.00 | 5.00 to 6.00 | 7.00 to 8.00 | > 5.30
5 | C=CC(=O)N1CC[C@H](C(=O)N(C)[C@H](C(=O)N[C@H]2Cc3cccc(c3F)-c3ccc4c(c3)c(c(-c3cccnc3[C@H](C)OC)n4CC)CC(C)(C)COC(=O)[C@@H]3CCCN(N3)C2=O)C(C)C)C1 (atropisomer, axis not shown) [Example A327] | 6.00 to 7.00 | 5.00 to 6.00 | < 5.00 | < 5.00 | 5.00 to 6.00 | 7.00 to 8.00 | < 5.00 | < 5.00 | 6.00 to 7.00 | > 5.30
6 | C=CC(=O)Nc1cnc(C(=O)N(C)[C@H](C(=O)N[C@H]2Cc3cc(O)cc(c3)-c3ccc4c(c3)c(c(-c3cccnc3[C@H](C)OC)n4CC)CC(C)(C)COC(=O)[C@@H]3CCCN(N3)C2=O)C(C)C)s1 (atropisomer, axis not shown) [Example A254] | 6.00 to 7.00 | 5.00 to 6.00 | 5.00 to 6.00 | 5.00 to 6.00 | 7.00 to 8.00 | 6.00 to 7.00 | 6.00 to 7.00 | 5.00 to 6.00 | 6.00 to 7.00 | > 5.30
7 | CCn1c(-c2cccnc2[C@H](C)OC)c2c3cc(ccc31)-c1cc(cc(C(F)F)c1)C[C@H](NC(=O)[C@H](C1CCCC1)N(C)C(=O)[C@H]1CCN(C(=O)C#CC(C)(C)N3CCC3)C1)C(=O)N1CCC[C@H](N1)C(=O)OCC(C)(C)C2 (atropisomer, axis not shown) [Example A456] | 7.00 to 8.00 | 5.00 to 6.00 | 5.00 to 6.00 | 5.00 to 6.00 | 5.00 to 6.00 | > 8.00 | 5.00 to 6.00 | 5.00 to 6.00 | 7.00 to 8.00 | > 5.30
8 | C/C=C/S(=O)(=O)N1CC[C@H](C(=O)N(C)[C@H](C(=O)N[C@H]2Cc3cc(O)cc(c3)-c3ccc4c(c3)c(c(-c3cccnc3[C@H](C)OC)n4CC)CC(C)(C)COC(=O)[C@@H]3CCCN(N3)C2=O)C(C)C)C1 (atropisomer, axis not shown) [Example A280] | 7.00 to 8.00 | 6.00 to 7.00 | 6.00 to 7.00 | 6.00 to 7.00 | 7.00 to 8.00 | 7.00 to 8.00 | 7.00 to 8.00 | 5.00 to 6.00 | 6.00 to 7.00 | > 5.30
